This note sets out measurements from ChEMBL document CHEMBL3639005, “SGLT-2 inhibitors, methods of making them, and uses thereof” (2013).

Test [1] has as its target T1, Sodium/glucose cotransporter 1 (Homo sapiens, UniProt P13866).
T1 sequence (P13866 whole entry): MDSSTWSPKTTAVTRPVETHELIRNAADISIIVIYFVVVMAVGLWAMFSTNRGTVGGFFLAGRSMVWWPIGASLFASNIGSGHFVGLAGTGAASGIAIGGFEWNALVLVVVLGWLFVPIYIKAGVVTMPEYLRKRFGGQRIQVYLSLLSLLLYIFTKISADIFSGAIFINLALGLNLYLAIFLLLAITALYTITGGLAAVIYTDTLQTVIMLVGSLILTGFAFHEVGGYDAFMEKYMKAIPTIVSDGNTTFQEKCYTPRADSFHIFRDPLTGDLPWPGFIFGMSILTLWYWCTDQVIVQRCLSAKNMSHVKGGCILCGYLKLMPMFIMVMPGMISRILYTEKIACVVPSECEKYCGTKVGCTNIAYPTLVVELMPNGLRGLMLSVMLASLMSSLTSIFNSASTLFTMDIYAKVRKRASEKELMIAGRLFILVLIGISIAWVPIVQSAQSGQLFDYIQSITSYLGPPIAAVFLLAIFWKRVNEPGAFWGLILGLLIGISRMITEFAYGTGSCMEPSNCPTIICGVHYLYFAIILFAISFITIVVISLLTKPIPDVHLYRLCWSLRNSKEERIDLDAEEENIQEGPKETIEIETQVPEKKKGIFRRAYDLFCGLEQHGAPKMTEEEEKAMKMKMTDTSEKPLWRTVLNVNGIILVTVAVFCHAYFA
Put plainly: (§1) In Vitro Assay: The inhibitory activity of the compounds of this invention against the SGLT-1 or SGLT-2 transporters.

The target of test [2] is T2, Sodium/glucose cotransporter 2 (Homo sapiens, UniProt P31639).
T2 sequence (P31639 whole entry): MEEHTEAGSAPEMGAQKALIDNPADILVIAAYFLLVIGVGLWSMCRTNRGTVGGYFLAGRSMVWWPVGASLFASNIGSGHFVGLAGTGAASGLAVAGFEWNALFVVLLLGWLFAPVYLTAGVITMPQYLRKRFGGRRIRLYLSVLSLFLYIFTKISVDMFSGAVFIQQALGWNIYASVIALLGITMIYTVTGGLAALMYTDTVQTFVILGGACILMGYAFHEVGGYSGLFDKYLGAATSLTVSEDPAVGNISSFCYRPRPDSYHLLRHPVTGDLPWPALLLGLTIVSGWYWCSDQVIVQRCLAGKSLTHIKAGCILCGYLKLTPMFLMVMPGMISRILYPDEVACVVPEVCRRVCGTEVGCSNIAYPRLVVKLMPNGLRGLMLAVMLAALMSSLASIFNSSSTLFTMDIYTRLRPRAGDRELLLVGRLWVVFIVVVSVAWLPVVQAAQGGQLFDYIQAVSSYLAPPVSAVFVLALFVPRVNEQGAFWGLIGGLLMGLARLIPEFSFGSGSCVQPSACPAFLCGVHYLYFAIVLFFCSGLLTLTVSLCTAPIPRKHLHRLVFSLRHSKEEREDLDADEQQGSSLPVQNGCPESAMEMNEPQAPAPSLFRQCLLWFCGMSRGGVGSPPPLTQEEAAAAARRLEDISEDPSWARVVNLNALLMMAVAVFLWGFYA
Described as §1.

A word on the IC50: it is the midpoint of a concentration-inhibition curve. The low end stands for greater potency in that assay, the high end for weaker potency in that assay. For the molecule `N#CC1(c2ccc3nn(Cc4cc([C@@H]5O[C@H](CO)[C@@H](O)[C@H](O)[C@H]5O)ccc4Cl)c(=O)n3c2)CC1`, the IC50 in test [1] is > 90000 nM; in test [2], 223 nM.

Regarding `O=c1n(Cc2cc([C@@H]3O[C@H](CO)[C@@H](O)[C@H](O)[C@H]3O)ccc2Cl)nc2cc(Cl)ccn12`, the concentration for half-maximal inhibition (IC50) was > 90000 nM in test [1] and 91 nM in test [2].
